# Calls of active or inactive are those of the source.
# How the values were obtained:
# [1] = molecular target: E3 ubiquitin-protein ligase Mdm2 (Homo sapiens, UniProt Q00987); assay: enhancers of MDM2-luciferase reporter signal, concentration-effect titration, project on inhibitors of MDM2 ubiquitin ligase, cellular assay, luminescent readout, 384-well plate format (AID 1394); assay type: functional;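 note: MDM2 E3 inhibitors raise luminescence so EC50 is for signal enhancement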
# [2] = molecular target: T1, E3 ubiquitin-protein ligase XIAP (Homo sapiens, UniProt P98170); assay: Counter Screen using XIAP-Bir3 for Chemical Antagonists of Bir1/2 domains of IAP-family anti-apoptotic proteins. [Related pubchem assays (depositor defined):AID1018, AID1449, AID1514, AID1638, AID1749, AID1750, AID488957, AID488963]
# T1 sequence (P98170 whole entry): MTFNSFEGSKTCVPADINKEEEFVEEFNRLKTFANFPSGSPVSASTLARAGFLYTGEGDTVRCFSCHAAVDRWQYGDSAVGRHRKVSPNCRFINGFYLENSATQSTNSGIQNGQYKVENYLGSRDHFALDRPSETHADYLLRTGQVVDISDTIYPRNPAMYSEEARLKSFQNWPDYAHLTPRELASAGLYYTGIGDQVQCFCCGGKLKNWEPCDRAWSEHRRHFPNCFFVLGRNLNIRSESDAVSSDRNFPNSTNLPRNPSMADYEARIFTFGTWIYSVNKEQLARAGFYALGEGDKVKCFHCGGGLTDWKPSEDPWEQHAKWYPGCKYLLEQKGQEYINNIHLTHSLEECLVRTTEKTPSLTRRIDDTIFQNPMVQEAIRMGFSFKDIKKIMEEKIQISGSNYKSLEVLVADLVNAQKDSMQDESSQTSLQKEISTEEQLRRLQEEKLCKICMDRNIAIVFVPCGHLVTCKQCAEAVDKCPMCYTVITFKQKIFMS
# [3] = molecular target: T1, E3 ubiquitin-protein ligase XIAP; assay: XIAP antagonists, biochemical, IAP family, fluorescence polarization (AID 1018); assay type: functional
# [4] = molecular target: Large T antigen (Simian virus 40, UniProt P03070); assay type: functional, Betapolyomavirus macacae;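 note: Confirmatory-stage PubChem screen for compounds that inhibit SV40 T antigen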
# Chain of Large T antigen (P03070 whole entry): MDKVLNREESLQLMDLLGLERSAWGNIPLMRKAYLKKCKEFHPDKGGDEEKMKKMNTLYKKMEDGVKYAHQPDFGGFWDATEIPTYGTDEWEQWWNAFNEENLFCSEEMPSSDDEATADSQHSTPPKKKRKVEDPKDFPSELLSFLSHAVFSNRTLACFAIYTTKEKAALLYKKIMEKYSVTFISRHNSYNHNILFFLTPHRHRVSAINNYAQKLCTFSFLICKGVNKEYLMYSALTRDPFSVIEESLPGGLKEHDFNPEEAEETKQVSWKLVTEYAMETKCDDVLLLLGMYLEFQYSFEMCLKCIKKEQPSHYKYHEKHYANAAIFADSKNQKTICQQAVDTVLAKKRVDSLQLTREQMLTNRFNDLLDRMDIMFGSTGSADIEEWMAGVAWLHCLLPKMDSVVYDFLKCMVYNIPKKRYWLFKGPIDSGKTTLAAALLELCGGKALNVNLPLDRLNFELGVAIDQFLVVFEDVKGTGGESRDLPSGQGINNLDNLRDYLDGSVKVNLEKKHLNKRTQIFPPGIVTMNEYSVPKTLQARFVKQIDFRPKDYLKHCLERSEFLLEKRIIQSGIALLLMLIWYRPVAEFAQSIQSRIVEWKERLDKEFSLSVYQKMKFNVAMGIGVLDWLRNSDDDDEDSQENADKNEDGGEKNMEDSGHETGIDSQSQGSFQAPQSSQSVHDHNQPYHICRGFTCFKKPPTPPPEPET
# [5] = molecular target: Bcl-2-like protein 1 (Homo sapiens, UniProt Q07817); assay: BCL-XL inhibitors, dose response, selectivity assay for MCL1 inhibitor project, biochemical, fluorescence polarization, 1536-well (AID 2218)
# Chain of Bcl-2-like protein 1 (Q07817 whole entry): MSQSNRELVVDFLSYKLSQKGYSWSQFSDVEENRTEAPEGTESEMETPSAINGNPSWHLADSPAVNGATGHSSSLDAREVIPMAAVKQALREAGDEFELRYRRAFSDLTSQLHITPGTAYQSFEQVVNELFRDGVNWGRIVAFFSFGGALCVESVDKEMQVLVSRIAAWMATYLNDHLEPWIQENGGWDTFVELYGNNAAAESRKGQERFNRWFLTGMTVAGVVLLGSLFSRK
# [6] = molecular target: Induced myeloid leukemia cell differentiation protein Mcl-1 (Homo sapiens, UniProt Q07820); assay: MCL1-BIM BH3 interaction inhibitors, dose response, biochemical, fluorescence polarization, BIM-BH3 peptide, 1536-well (AID 2217)
# Chain of Induced myeloid leukemia cell differentiation protein Mcl-1 (Q07820 whole entry, the tested form may be a part): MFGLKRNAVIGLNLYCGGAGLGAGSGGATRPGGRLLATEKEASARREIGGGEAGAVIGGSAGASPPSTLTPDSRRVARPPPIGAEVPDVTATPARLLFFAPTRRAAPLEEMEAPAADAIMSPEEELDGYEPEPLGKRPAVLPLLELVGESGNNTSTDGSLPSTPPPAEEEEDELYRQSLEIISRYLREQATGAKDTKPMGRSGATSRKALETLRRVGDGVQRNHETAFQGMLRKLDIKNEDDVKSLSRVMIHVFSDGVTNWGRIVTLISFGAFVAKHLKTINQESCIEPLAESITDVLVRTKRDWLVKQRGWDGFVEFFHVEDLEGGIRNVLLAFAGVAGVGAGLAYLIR
# [7] = molecular target: T2, Estrogen receptor (Homo sapiens, UniProt P03372); assay: potentiators of ERα–SRC-1 coactivator binding, dose response, biochemical, TR-FRET, ERα LBD (AID 737)
# T2 sequence (P03372 whole entry): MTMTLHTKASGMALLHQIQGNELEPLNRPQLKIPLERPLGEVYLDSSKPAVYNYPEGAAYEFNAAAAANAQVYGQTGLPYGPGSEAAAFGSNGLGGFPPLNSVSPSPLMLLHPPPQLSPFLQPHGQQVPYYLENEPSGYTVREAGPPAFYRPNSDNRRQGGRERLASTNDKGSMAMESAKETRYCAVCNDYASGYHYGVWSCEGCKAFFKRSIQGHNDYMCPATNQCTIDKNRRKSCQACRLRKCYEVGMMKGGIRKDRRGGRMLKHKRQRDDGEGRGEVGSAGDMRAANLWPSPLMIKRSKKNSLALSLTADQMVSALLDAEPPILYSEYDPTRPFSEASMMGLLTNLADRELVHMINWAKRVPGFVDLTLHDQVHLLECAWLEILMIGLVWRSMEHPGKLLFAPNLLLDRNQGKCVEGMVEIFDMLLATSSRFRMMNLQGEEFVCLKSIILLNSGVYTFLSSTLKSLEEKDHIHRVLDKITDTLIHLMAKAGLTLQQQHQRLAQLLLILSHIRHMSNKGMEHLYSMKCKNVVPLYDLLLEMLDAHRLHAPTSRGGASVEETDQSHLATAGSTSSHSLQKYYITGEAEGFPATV
# [8] = molecular target: Estrogen receptor beta (Homo sapiens, UniProt Q92731);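 note: recombinant ER-beta bound to coactivator SRC1 peptide in presence of estradiol agonist; inhibitors block coactivator peptide binding and lower the FRET signal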
# Chain of Estrogen receptor beta (Q92731 whole entry): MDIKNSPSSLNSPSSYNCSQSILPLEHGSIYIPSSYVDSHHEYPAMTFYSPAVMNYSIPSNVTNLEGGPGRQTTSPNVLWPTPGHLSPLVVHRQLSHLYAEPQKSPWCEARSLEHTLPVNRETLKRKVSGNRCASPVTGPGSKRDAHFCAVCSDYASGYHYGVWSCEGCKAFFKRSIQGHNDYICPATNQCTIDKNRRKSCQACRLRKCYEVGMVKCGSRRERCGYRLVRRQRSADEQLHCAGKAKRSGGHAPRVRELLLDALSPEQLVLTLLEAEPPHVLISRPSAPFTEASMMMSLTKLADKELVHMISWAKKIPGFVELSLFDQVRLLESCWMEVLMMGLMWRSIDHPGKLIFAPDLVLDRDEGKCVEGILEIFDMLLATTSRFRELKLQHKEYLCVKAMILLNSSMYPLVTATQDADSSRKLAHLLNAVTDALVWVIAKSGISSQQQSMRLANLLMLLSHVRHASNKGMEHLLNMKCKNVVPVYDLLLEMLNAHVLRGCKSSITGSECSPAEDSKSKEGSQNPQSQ
# [9] = molecular target: T3, Bcl-2-like protein 10 (Homo sapiens, UniProt Q9HD36); assay: Biochemical TR3 FP assay of Bcl-B inhibitor potency, EC50 (AID 1243); assay type: functional
# T3 sequence (Q9HD36 whole entry): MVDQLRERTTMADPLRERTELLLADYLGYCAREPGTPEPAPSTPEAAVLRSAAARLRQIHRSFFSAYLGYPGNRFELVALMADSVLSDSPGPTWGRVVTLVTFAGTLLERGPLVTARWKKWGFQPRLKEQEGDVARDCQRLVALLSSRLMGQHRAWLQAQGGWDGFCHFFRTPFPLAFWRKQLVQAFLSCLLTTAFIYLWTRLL
# [10] = molecular target: T4, Aminopeptidase N (Plasmodium falciparum FcB1/Columbia, UniProt O96935); assay: P. falciparum M1AAP inhibitors, biochemical, fluorogenic H-Leu-NHMec substrate, 1536-well (AID 1445); parameters: species or system Plasmodium falciparum 3D7, 3D7
# T4 sequence (O96935 whole entry): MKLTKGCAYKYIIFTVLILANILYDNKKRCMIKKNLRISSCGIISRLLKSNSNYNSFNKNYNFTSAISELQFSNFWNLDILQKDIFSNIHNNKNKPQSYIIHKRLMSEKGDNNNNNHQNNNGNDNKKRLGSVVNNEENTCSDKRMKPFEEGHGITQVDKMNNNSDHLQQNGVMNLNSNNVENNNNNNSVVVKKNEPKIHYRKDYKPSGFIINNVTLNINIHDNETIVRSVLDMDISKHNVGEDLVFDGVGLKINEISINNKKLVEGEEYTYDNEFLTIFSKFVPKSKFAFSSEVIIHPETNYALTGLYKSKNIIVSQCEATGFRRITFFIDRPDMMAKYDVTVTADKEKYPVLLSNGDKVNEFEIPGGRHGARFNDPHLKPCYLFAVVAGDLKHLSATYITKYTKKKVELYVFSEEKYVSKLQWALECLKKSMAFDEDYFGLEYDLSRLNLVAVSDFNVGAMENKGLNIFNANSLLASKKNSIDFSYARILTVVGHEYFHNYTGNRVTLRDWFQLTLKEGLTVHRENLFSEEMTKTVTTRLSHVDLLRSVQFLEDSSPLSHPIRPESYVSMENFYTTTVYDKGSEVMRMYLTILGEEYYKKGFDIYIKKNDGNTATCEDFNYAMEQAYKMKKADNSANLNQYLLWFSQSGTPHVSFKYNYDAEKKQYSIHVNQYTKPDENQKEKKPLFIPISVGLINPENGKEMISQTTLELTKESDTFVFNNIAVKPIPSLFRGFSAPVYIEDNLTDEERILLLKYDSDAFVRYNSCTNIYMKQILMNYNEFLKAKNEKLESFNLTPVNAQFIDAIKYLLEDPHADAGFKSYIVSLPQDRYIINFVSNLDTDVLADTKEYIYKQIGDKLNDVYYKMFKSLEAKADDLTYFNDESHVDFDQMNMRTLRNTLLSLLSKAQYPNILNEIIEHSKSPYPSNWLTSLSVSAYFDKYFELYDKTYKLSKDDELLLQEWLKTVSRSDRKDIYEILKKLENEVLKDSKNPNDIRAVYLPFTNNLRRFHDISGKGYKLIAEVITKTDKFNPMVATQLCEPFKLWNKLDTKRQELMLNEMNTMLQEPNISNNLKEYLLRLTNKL
# [11] = inhibitors of Bluetongue virus cytopathic effect, confirmation, arbovirus, BSR cells (AID 1250); assay type: functional;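 note: protection from viral cytopathic effect measured as cell viability by ATP luminescence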
# Chain of E3 ubiquitin-protein ligase Mdm2 (Q00987 whole entry): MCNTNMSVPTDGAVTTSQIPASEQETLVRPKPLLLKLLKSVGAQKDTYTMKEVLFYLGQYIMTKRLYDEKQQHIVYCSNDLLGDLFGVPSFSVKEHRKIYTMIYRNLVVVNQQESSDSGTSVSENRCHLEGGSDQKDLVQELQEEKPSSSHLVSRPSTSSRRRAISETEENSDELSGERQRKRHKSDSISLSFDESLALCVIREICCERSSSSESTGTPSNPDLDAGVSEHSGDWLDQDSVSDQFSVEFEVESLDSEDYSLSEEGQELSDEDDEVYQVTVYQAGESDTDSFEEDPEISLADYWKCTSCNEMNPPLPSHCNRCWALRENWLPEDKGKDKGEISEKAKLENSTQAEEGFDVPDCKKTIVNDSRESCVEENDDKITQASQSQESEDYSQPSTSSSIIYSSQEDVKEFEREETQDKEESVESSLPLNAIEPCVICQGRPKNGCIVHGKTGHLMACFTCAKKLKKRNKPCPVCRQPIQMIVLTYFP
smiles,measurement,setting,value
Cc1cc(NC(=O)CSc2nc(C(C)C)nc3c2c(=O)n(C)c(=O)n3C)no1,EC50,[1],12.3 µM (not active)
CC(=O)Nc1ccc(S(=O)(=O)N(C)CC(=O)OCC(=O)N2CCc3ccccc32)cc1,EC50,[1],149 µM (not active)
COc1ccccc1Cn1c(=O)c2ccccc2n2c(SCC(=O)N3CCCCC3)nnc12,IC50,[2],> 100 µM (inactive)
same,IC50,[3],> 100 µM (not active)
O=C(O)C1Nc2ccc(OC(F)(F)F)cc2C2C=CCC12 (configuration not stated),IC50,[4],12.7 µM (active)
same,IC50,[5],60.6 µM (not active)
same,IC50,[6],8.63 µM (active)
Cc1ccc(NC(=O)CSc2nnc(-c3cnccn3)n2Cc2ccco2)cc1C,EC50,[7],37.6 µM (not active)
CN(C1CCCCC1)S(=O)(=O)c1ccc(S(=O)(=O)N2CCN(CCC#N)CC2)cc1,IC50,[8],> 50 µM (not active)
C(=N\c1ccc(/N=C/c2ccccn2)cc1)/c1ccccn1,EC50,[9],4.39 µM (active)
O=C(Nc1scc(-c2cccs2)c1C(=O)O)c1cccs1,IC50,[10],49.2 µM (active)
same,IC50,[11],24 µM (active)

# Reference: ChEMBL document CHEMBL1201862, “PubChem BioAssay data set” (2004)
